One data set deals with K562 cells. In words: Cell Titer Blue viability, single drug, K562 cells. On the procedure:
(§1) Viable cells reduce resazurin to resorufin (pink).
(§2) Cell growth was evaluated as described above.
K562 was established from pleural effusion of person with chronic myelogenous leukaemia in terminal blast crisis. […] The line used in these experiments was the K562B. […] K562B has been compared to K562A and K562 C, with respect to growth kinetics, cell surface protein markers, surface antigens, cytogenetics and hemoglobin production.
(§3) The cell lines were counted. […] Fresh medium containing either two-fold increasing concentrations of Mycograb® (1.5-200 μg/ml), or medium alone was then added to the wells. The plate was returned to the incubator for 48 hours following which the cell titre blue assay was carried out, or viable counts were determined using a haemocytometer.
(§4) The cell lines were counted. […] The plates were returned to the incubator for 48 hours following which cell titre blue assays were carried out.
Background: Alamar Blue is a resazurin reagent that responds to reducing activity.

For the next data set, the system named is MCF7 cells. In words: Cell Titer Blue viability, single drug, MCF7 cells. The data set is classed as cell-based, human. On the procedure:
(§5) Viable cells reduce resazurin to resorufin (pink). Cell growth was evaluated as described above. […] The cell lines were split and cells counted. […] The next day, the cells were observed under phase contrast microscopy to ensure they had adhered to the plates and the supernatant medium removed by aspiration.

The subject of another data set is HS578T cells. The experiment in a line: Cell Titer Blue viability, single drug, HS578T cells. Format: cell-based, human. On the procedure: as §5
In data set [1] the test system is HT29 cells. The experiment in a line: Cell Titer Blue viability, drugs without Mycograb or Mycograb alone, HT29 cells. Format: cell-based, human. To be noted: for IC50: 5-FU tested plus 1 mg/ml Folinic acid. On the procedure: as §1, §2
Human colon adenocarcinoma grade 11 cell line HT29, was obtained from ECACC (ECACC number 91072201).
The cell lines were split and the cells counted. […] The next day, the cells were observed under phase contrast microscopy to ensure they had adhered to the plates and the supernatant medium removed by aspiration. 100 μl of fresh complete RPMI medium containing increasing two fold concentrations of study drug (5-FU 4.5-2400 μg/ml plus 1 mg/ml Folinic acid or Oxaliplatin 1-500 μg/ml) or medium alone (Media+2.5% DMSO for 5-FU control) was then added to the wells.

Data set [2] deals with HT29 cells. In words: Checkerboard of Mycograb versus 5-FU/Folinic acid and/or Oxaliplatin, median effect analysis (CI), HT29 cells. The data set is classed as cell-based, human. Conditions: for Dm: median effect analysis (Calcusyn).
Source text: as §1
CI values are shown for Fa50.
(§6) The cell lines were split and the cells counted.
as §6

The subject of data set [3] is Hsp 90 in multi-chaperone complexes derived from tumour cells. To be noted: higher than Hsp90 from normal cells (latent uncomplexed state); cited from earlier work.
The next data set concerns KU-812 cells. In words: Cell Titer Blue viability, single drug, KU-812 cells. To be noted: Mycograb on its own at 50 μg/ml. On the procedure:
as §1, §2, §3, §4

Where [4] appears, read: K562 cells, single drug, 48 hour incubation.
[5] abbreviates: Homo sapiens, MCF7 cells, single drug, 48 hour incubation, read-out: IC50.
Setting [6] is: Homo sapiens, Hs-578T, HS578T cells, single drug, 48 hour incubation, read-out: IC50.

≈ marks a conversion by molar mass, not a printed value. Read-outs that look alike come from different tables or passages of the source.

In the case of `N.N.[Cl][Pt][Cl]` [Cisplatin], the IC50 in the data set on K562 cells (setting [4]) is 12.5 µg/mL; in the data set on MCF7 cells (MCF7 cells, single drug, 48 hour incubation) it was 6 µg/mL; in the data set with HS578T cells (HS578T cells, single drug, 48 hour incubation), 12.5 µg/mL.
Take `CC(=O)O[C@@]12CO[C@@H]1C[C@H](O)[C@@]1(C)C(=O)[C@H](O)C3=C(C)[C@@H](OC(=O)[C@H](O)[C@@H](NC(=O)OC(C)(C)C)c4ccccc4)C[C@@](O)([C@@H](OC(=O)c4ccccc4)[C@H]21)C3(C)C` [Docetaxel]: the IC50 in the data set on K562 cells (Homo sapiens, K562, 48 h) was 70 µg/mL (≈ 86.6 µM); in the data set with MCF7 cells (setting [5]), 225 µg/mL (≈ 279 µM); with HS578T cells (setting [6]), 50 µg/mL (≈ 61.9 µM).
With `O=c1[nH]cc(F)c(=O)[nH]1` [5-FU, 5-Fluorouracil], the IC50 was 150 µg/mL in the data set on HT29 cells [1] (Homo sapiens, HT-29, 48 hours, read-out: IC50) and 297 µg/mL in the data set on HT29 cells [2] (Homo sapiens, HT-29, median effect analysis (Calcusyn), read-out: Dm).
Turning to `O=C1[O][Pt]2([NH][C@@H]3CCCC[C@H]3[NH]2)[O]C1=O` [Oxaliplatin], the IC50 with HT29 cells [1] (48 hours) is 16 µg/mL. Besides, the Dm with HT29 cells [2] was 27.77.
On to `CC(=O)O[C@H]1C(=O)[C@@]2(C)[C@H]([C@H](OC(=O)c3ccccc3)[C@]3(O)C[C@H](OC(=O)[C@H](O)[C@@H](NC(=O)c4ccccc4)c4ccccc4)C(C)=C1C3(C)C)[C@]1(OC(C)=O)CO[C@@H]1C[C@@H]2O` [Paclitaxel], for which the IC50 amounted to 32 µg/mL (≈ 37.5 µM) in the data set with K562 cells (Homo sapiens, K562, 48 h) and 225 µg/mL (≈ 263 µM) in the data set with MCF7 cells (setting [5]).
With `C=CCNC1=C2C[C@@H](C)C[C@H](OC)[C@H](O)[C@@H](C)/C=C(\C)[C@H](OC(N)=O)[C@@H](OC)/C=C\C=C(/C)C(=O)NC(=CC1=O)C2=O` [17AAG, 17-allylamino, 17-desmethoxygeldanamycin], the “binding affinity for 17AAG, Hsp 90 in tumour-cell multi-chaperone complexes versus Hsp90 from normal cells” value in data set [3] is listed as 100 fold.
As to `COc1cccc2c1C(=O)c1c(O)c3c(c(O)c1C2=O)C[C@@](O)(C(C)=O)C[C@@H]3O[C@H]1C[C@H](N)[C@H](O)[C@H](C)O1` [Daunorubicin], the IC50 in the data set on K562 cells (Homo sapiens, K562, 48 h) is 0.75 µg/mL (≈ 1.42 µM); in the data set with MCF7 cells (Homo sapiens, MCF7, 48 h), 1 µg/mL (≈ 1.9 µM); in the data set on HS578T cells (Homo sapiens, Hs-578T, 48 h), 1 µg/mL (≈ 1.9 µM).
Consider `COc1cccc2c1C(=O)c1c(O)c3c(c(O)c1C2=O)C[C@@](O)(C(=O)CO)C[C@@H]3O[C@H]1C[C@H](N)[C@H](O)[C@H](C)O1` [Doxorubicin], for which the IC50 in the data set with K562 cells (Homo sapiens, K562, 48 h) is 1 µg/mL (≈ 1.84 µM); in the data set on MCF7 cells (setting [5]), 1.75 µg/mL (≈ 3.22 µM); in the data set with HS578T cells (setting [6]), 1 µg/mL (≈ 1.84 µM).
Regarding `NC(=O)NO` [Hydroxyurea], the IC50 entry in the data set on K562 cells (setting [4]) is recorded as “never reached”.

B1: Mycograb: anti-Hsp90 antibody disclosed in WO 01/76627, sequence of SEQ ID NO: 2, specific for epitope of peptide SEQ ID NO: 1 (protein)
chain: HMAEVQLVESGAEVKKPGESLRISCKGSGCIISSYWISWVRQMPGKGLEWMGKIDPGDSYINYSPSFQGHVTISADKSINTAYLQWNSLKASDTAMYYCARGGRDFGDSFDYWGQGTLVTVSSGGGGSGGGGSGGGGSDVVMTQSPSFLSAFVGDRITITCRASSGISRYLAWYQQAPGKAPKLLIYAASTLQTGVPSRFSGSGSGTEFTLTINSLQPEDFATYYCQHLNSYPLTFGGGTKVDIKRAA
Turning to B1, the “reduction in cell viability” value turned out to be 50% in the data set with HT29 cells [1] (Mycograb on its own at 125 μg/ml); 40% in the data set with K562 cells (K562 cells, Mycograb on its own at 12.5 μg/ml); 40% in the data set with KU-812 cells. Besides, in the data set with HT29 cells [2], the Dm is on record as 96.47. Besides, the “sensitivity of cell line to Mycograb alone” value with HS578T cells (HS578T cells, increasing concentrations up to 400 mg/l) was “insensitive”.

These data come from patent US20080038267A1, “Treatment Of Cancer” (NEUTEC PHARMA LIMITED, priority 2004, published 2008).
